In article PMC6272893, “NO-Releasing Enmein-Type Diterpenoid Derivatives with Selective Antiproliferative Activity and Effects on Apoptosis-Related Proteins” (Molecules, 2016):

Assays:
K562 cells = experiment: MTT antiproliferative assay, K562; type: cell-based, human; details: Homo sapiens, K562; MTT, 72 h, mean ± S.D. of three experiments
Experimental: [The source words this procedure for another cell line and reports this cell line under the same test.] (§1) Cytotoxicity assay in vitro was employed by the MTT assay following the methodology described previously, which was performed in flat-bottomed 96-well plates. In short, exponentially growing MGC-803 cells at the log phase were added to each well at a density of 5 × 10^3 per well, then treated with serial dilutions of the compounds in three replicates at various concentrations (0.039–40 µg/mL). After 72 h, 20 µL of MTT solution (5 mg/mL) per well was added to each cultured medium. Then, DMSO was added to each well (150 µL/well). After 10 min at room temperature, the absorbance (OD) was read on a microplate reader at the wavelength of 490 nm (BIO-RAD Instruments Inc. 550, Hercules, CA, USA). In these experiments, taxol was used as the positive reference with the concentration of 10 µg/mL.

L-02 normal liver cells = experiment: MTT antiproliferative assay, L-02; type: cell-based; details: MTT, 72 h, mean ± S.D. of three experiments; read-out: antiproliferative activity IC50, L-02
Experimental: [The source words this procedure for another cell line and reports this cell line under the same test.] as §1

MGC-803 cells = experiment: MTT antiproliferative assay, MGC-803; type: cell-based, human; details: Homo sapiens, MGC-803; MTT, 72 h, mean ± S.D. of three experiments
Experimental: as §1

CaEs-17 cells = experiment: MTT antiproliferative assay, CaEs-17; type: cell-based, human; details: Homo sapiens, CaEs17; MTT, 72 h, mean ± S.D. of three experiments
Experimental: [The source words this procedure for another cell line and reports this cell line under the same test.] as §1

Bel-7402 cells = experiment: MTT antiproliferative assay, Bel-7402; type: cell-based, human; details: Homo sapiens, Bel-7402; MTT, 72 h, mean ± S.D. of three experiments
Experimental: [The source words this procedure for another cell line and reports this cell line under the same test.] as §1

| Compound | IC50 (K562 cells) | IC50 (MGC-803 cells) | IC50 (Bel-7402 cells) | IC50 (L-02 normal liver cells) | IC50 (CaEs-17 cells) |
| --- | --- | --- | --- | --- | --- |
| O=C(O)CCC(=O)OCCCCOc1no[n+]([O-])c1S(=O)(=O)c1ccccc1 [Compound 7g] | 24 ± 1.4 µM | 20.6 ± 1.7 µM | 22.7 ± 1 µM | 39.4 ± 2.6 µM | 25.7 ± 0.7 µM |
| O=C(O)CCCC(=O)OCCCOc1no[n+]([O-])c1S(=O)(=O)c1ccccc1 [Compound 7e] | 18.5 ± 1.6 µM | 20 ± 1.1 µM | 18.6 ± 0.8 µM | 36.3 ± 2.1 µM | 18.7 ± 1 µM |
| O=C(O)c1ccccc1C(=O)OCCOc1no[n+]([O-])c1S(=O)(=O)c1ccccc1 [Compound 7c] | 22.6 ± 1.7 µM | 24.6 ± 1.4 µM | 19.6 ± 1 µM | 41.3 ± 2.9 µM | 23.8 ± 1 µM |
| O=C(O)CCCC(=O)OCCCCOc1no[n+]([O-])c1S(=O)(=O)c1ccccc1 [Compound 7h] | 24.5 ± 1.4 µM | 23.5 ± 1 µM | 21.3 ± 0.7 µM | 35.4 ± 1.4 µM | 22.9 ± 1.4 µM |
| O=C(O)CCC(=O)OCCOc1no[n+]([O-])c1S(=O)(=O)c1ccccc1 [Compound 7a] | 22.6 ± 2 µM | 25.4 ± 1.5 µM | 22 ± 0.8 µM | 37.8 ± 1.3 µM | 24.3 ± 0.9 µM |
| O=C(O)CCC(=O)OCCCOc1no[n+]([O-])c1S(=O)(=O)c1ccccc1 [Compound 7d] | 17.5 ± 1.4 µM | 18.5 ± 0.8 µM | 17.8 ± 1.4 µM | 37.4 ± 0.8 µM | 19.8 ± 1.3 µM |
| O=C(O)c1ccccc1C(=O)OCCCCOc1no[n+]([O-])c1S(=O)(=O)c1ccccc1 [Compound 7i] | 23 ± 1.2 µM | 21.6 ± 1.5 µM | 22.4 ± 1.6 µM | 37.9 ± 2.8 µM | 24.8 ± 1.5 µM |
| O=C(O)CCCC(=O)OCCOc1no[n+]([O-])c1S(=O)(=O)c1ccccc1 [Compound 7b] | 24.2 ± 2.5 µM | 22.2 ± 2.5 µM | 22.3 ± 1.6 µM | 39.6 ± 1.4 µM | 25.7 ± 1.4 µM |
| O=C(O)c1ccccc1C(=O)OCCCOc1no[n+]([O-])c1S(=O)(=O)c1ccccc1 [Compound 7f] | 17.5 ± 1 µM | 19.3 ± 0.6 µM | 16.7 ± 0.8 µM | 35.8 ± 1.3 µM | 19.2 ± 0.7 µM |

Now from value to molecule, other results behind:

| IC50 (K562 cells) | IC50 (MGC-803 cells) | IC50 (Bel-7402 cells) | Compound | IC50 (L-02 normal liver cells) | IC50 (CaEs-17 cells) |
| --- | --- | --- | --- | --- | --- |
| 2.06 ± 0.16 µM | 1.64 ± 0.12 µM | 1.09 ± 0.09 µM | C=C1C(=O)C23C(=O)OC4CCC(C)(C)C5C(=O)OCC45C2CCC1C3OC(=O)c1ccccc1C(=O)OCCCCOc1no[n+]([O-])c1S(=O)(=O)c1ccccc1 (stereo not drawn) [Compound 10i] | 27.7 ± 1.3 µM | 4.13 ± 0.29 µM |
| 2.78 ± 0.2 µM | 2.65 ± 0.16 µM | 1.65 ± 0.12 µM | C=C1C(=O)C23C(=O)OC4CCC(C)(C)C5C(=O)OCC45C2CCC1C3OC(=O)CCCC(=O)OCCCCOc1no[n+]([O-])c1S(=O)(=O)c1ccccc1 (stereo not drawn) [Compound 10h] | 29.8 ± 0.9 µM | 5.48 ± 0.21 µM |
| 2.9 ± 0.17 µM | 2.67 ± 0.24 µM | 1.75 ± 0.12 µM | C=C1C(=O)C23C(=O)OC4CCC(C)(C)C5C(=O)OCC45C2CCC1C3OC(=O)CCCC(=O)OCCOc1no[n+]([O-])c1S(=O)(=O)c1ccccc1 (stereo not drawn) [Compound 10b] | 22.1 ± 1.3 µM | 5.56 ± 0.06 µM |
| 2.04 ± 0.1 µM | 2.03 ± 0.15 µM | 1.17 ± 0.02 µM | C=C1C(=O)C23C(=O)OC4CCC(C)(C)C5C(=O)OCC45C2CCC1C3OC(=O)CCC(=O)OCCCOc1no[n+]([O-])c1S(=O)(=O)c1ccccc1 (stereo not drawn) [Compound 10d] | 27.4 ± 1 µM | 4.84 ± 0.47 µM |
| 2.82 ± 0.22 µM | 2.8 ± 0.09 µM | 1.85 ± 0.11 µM | C=C1C(=O)C23C(=O)OC4CCC(C)(C)C5C(=O)OCC45C2CCC1C3OC(=O)CCC(=O)OCCCCOc1no[n+]([O-])c1S(=O)(=O)c1ccccc1 (stereo not drawn) [Compound 10g] | 33.9 ± 1.5 µM | 5.52 ± 0.08 µM |
| 2.86 ± 0.05 µM | 2.84 ± 1.12 µM | 1.91 ± 0.09 µM | C=C1C(=O)C23C(=O)OC4CCC(C)(C)C5C(=O)OCC45C2CCC1C3OC(=O)CCC(=O)OCCOc1no[n+]([O-])c1S(=O)(=O)c1ccccc1 (stereo not drawn) [Compound 10a] | 24.4 ± 0.8 µM | 5.68 ± 0.53 µM |
